Measurements as given in ChEMBL document CHEMBL4190172 (Medchemcomm, 2016).
Active and inactive are the calls of the source. The rule behind the calls is not given here.

Experiments:
[1] = target: T1, Histone deacetylase 8 (Homo sapiens) (UniProt Q9BY41); experiment: Inhibition of recombinant human C-terminal His-tagged HDAC8 up to 50 uM using Boc-Lys-(Ac)-AMC as substrate after 1 hr by fluorescence assay
T1 sequence (whole entry): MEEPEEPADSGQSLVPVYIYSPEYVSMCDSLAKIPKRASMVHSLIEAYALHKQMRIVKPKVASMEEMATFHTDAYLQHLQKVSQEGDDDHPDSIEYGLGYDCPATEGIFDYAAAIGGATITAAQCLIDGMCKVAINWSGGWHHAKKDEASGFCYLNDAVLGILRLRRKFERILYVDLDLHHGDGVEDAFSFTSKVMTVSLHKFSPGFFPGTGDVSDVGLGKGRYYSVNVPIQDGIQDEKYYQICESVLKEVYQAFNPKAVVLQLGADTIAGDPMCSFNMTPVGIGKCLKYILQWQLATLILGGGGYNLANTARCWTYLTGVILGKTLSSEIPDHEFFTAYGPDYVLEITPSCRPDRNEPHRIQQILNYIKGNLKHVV

[2] = target: Histone deacetylase 2 (Homo sapiens) (UniProt Q92769); experiment: Inhibition of recombinant human C-terminal His/flag-tagged HDAC2 at 2 to 16 uM using Boc-Lys-(Ac)-AMC as substrate preincubated for 1 hr followed by substrate addition in presence of Lys-C by fluorescence assay
Histone deacetylase 2 (Homo sapiens), sequence (Q92769 whole entry): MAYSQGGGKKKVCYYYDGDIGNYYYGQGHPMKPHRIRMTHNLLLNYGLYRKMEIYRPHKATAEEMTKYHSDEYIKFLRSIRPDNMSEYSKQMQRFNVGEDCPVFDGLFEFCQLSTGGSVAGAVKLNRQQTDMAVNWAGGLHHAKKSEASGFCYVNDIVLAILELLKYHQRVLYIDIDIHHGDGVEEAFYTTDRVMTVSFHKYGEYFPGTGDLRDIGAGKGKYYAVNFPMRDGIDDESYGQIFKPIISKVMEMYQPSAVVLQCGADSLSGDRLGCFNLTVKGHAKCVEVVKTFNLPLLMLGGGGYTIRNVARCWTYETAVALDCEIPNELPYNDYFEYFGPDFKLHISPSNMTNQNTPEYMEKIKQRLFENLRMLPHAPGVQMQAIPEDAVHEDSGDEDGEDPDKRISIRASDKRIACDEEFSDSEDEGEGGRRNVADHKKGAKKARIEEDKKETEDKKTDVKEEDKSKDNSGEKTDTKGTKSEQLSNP

[3] = target: Histone deacetylase 1 (Homo sapiens) (UniProt Q13547); experiment: Inhibition of recombinant human C-terminal His/flag-tagged HDAC1 at 2 to 16 uM using Boc-Lys-(Ac)-AMC as substrate preincubated for 1 hr followed by substrate addition in presence of Lys-C by fluorescence assay
Histone deacetylase 1 (Homo sapiens), sequence (Q13547 whole entry): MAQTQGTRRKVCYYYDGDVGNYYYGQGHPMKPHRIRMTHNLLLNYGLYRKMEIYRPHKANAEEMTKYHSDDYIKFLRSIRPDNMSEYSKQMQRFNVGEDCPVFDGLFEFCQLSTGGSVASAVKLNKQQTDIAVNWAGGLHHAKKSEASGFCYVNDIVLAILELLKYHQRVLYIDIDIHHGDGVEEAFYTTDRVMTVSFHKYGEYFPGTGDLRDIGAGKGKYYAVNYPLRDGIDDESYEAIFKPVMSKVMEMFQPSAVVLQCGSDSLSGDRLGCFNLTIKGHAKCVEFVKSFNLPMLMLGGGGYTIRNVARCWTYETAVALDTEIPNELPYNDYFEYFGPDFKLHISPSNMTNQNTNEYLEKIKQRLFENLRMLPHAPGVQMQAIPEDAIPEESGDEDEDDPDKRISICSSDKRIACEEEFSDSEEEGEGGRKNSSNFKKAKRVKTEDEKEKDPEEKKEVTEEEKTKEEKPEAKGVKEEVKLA

[4] = target: T2, Histone deacetylase 3/Nuclear receptor corepressor 2 (HDAC3/NCoR2) (Homo sapiens) (UniProt O15379+Q9Y618); experiment: Inhibition of recombinant human C-terminal His/flag-tagged HDAC3/NcoR2 at 2 to 16 uM using Boc-Lys-(Ac)-AMC as substrate preincubated for 1 hr followed by substrate addition in presence of Lys-C by fluorescence assay; assay type: protein-complex assay
[5] = target: Transcription factor p65 (Mus musculus) (UniProt Q04207); experiment: Inhibition of NF-kappaB p65 transcriptional activity in LPS/IFNgamma-stimulated mouse RAW264.7 cells at 1 to 5 uM incubated for 20 hrs followed by LPS/IFNgamma stimulation for last 4 hrs by SEAP reporter gene assay; assay type: cell-based
Transcription factor p65 (Mus musculus), sequence (Q04207 whole entry): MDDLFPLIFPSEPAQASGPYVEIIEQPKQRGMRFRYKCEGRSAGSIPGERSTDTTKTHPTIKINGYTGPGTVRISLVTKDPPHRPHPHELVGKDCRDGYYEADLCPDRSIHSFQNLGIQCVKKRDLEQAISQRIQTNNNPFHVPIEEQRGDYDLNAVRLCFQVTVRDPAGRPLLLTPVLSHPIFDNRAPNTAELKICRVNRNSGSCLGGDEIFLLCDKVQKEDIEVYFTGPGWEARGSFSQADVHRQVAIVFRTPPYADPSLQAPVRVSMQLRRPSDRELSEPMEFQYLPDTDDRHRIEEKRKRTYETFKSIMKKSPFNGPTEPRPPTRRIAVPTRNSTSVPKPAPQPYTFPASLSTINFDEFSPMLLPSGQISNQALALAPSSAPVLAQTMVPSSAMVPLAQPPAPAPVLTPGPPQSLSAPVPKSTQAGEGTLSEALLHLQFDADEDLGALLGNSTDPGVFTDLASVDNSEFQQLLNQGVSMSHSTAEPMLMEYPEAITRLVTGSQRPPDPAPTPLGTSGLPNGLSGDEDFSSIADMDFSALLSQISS

[6] = target: T2, Histone deacetylase 3/Nuclear receptor corepressor 2 (HDAC3/NCoR2) (Homo sapiens); experiment: Inhibition of recombinant human C-terminal His/flag-tagged HDAC3/NcoR2 at 2 to 16 uM using Boc-Lys-(Ac)-AMC as substrate in presence of Lys-C by fluorescence assay; assay type: protein-complex assay; conditions: TDE = time-dependent effect
RAW264.7 [7] = experiment: Cytotoxicity against LPS/IFNgamma-stimulated mouse RAW264.7 cells assessed as decrease in cell viability incubated for 16 hrs followed by LPS/IFNgamma stimulation for last 4 hrs by MTS assay; assay type: cell-based; conditions: raw264.7, 16 h
RAW264.7 [8] = experiment: Antiinflammatory activity in LPS/IFNgamma-stimulated mouse RAW264.7 cells assessed as decrease in iNOS mRNA level at 10 uM incubated for 20 hrs followed by LPS/IFNgamma stimulation for last 4 hrs by qRT-PCR analysis; assay type: functional, cell-based
[9] = target: T2, Histone deacetylase 3/Nuclear receptor corepressor 2 (HDAC3/NCoR2) (Homo sapiens); experiment: Inhibition of recombinant human C-terminal His-tagged HDAC3/NcoR2 using Boc-Lys-(Ac)-AMC as substrate after 1 hr by fluorescence assay; assay type: protein-complex assay
[10] = target: Transcription factor p65 (Mus musculus) (UniProt Q04207); experiment: Inhibition of NF-kappaB p65 transcriptional activity in LPS/IFNgamma-stimulated mouse RAW264.7 cells at 10 uM incubated for 20 hrs followed by LPS/IFNgamma stimulation for last 4 hrs by SEAP reporter gene assay; assay type: cell-based
[11] = target: Histone deacetylase 1 (Homo sapiens) (UniProt Q13547); experiment: Inhibition of recombinant human C-terminal His/flag-tagged HDAC1 using Boc-Lys-(Ac)-AMC as substrate after 1 hr by fluorescence assay
[12] = target: Histone deacetylase 2 (Homo sapiens) (UniProt Q92769); experiment: Inhibition of recombinant human C-terminal His/flag-tagged HDAC2 at 2 to 16 uM using Boc-Lys-(Ac)-AMC as substrate in presence of Lys-C by fluorescence assay; conditions: TDE = time-dependent effect
[13] = target: Histone deacetylase 2 (Homo sapiens) (UniProt Q92769); experiment: Inhibition of recombinant human C-terminal flag-tagged HDAC2 using Boc-Lys-(Ac)-AMC as substrate after 1 hr by fluorescence assay
[14] = target: Transcription factor p65 (Mus musculus) (UniProt Q04207); experiment: Inhibition of NF-kappaB p65 nuclear translocation in LPS/IFNgamma-stimulated mouse RAW264.7 cells at 1 uM incubated for 20 hrs followed by LPS/IFNgamma addition measured after 1 hr by Hoechst 33342 staining based immunofluorescence microscopy; assay type: cell-based
[15] = target: Histone deacetylase 1 (Homo sapiens) (UniProt Q13547); experiment: Inhibition of recombinant human C-terminal His/flag-tagged HDAC1 at 2 to 16 uM using Boc-Lys-(Ac)-AMC as substrate in presence of Lys-C by fluorescence assay; conditions: TDE = time-dependent effect
RAW264.7 [16] = experiment: Antiinflammatory activity in LPS/IFNgamma-stimulated mouse RAW264.7 cells assessed as decrease in IL-6 mRNA level incubated for 20 hrs followed by LPS/IFNgamma stimulation for last 4 hrs by qRT-PCR analysis; assay type: functional, cell-based
RAW264.7 [17] = experiment: Antiinflammatory activity in LPS/IFNgamma-stimulated mouse RAW264.7 cells assessed as decrease in TNFalpha mRNA level incubated for 20 hrs followed by LPS/IFNgamma stimulation for last 4 hrs by qRT-PCR analysis; assay type: functional, cell-based
RAW264.7 [18] = experiment: Antiinflammatory activity in LPS/IFNgamma-stimulated mouse RAW264.7 cells assessed as decrease in IL-12b mRNA level at 1 to 10 uM incubated for 20 hrs followed by LPS/IFNgamma stimulation for last 4 hrs by qRT-PCR analysis; assay type: functional, cell-based
RAW264.7 [19] = experiment: Antiinflammatory activity in LPS/IFNgamma-stimulated mouse RAW264.7 cells assessed as decrease in IL-1beta mRNA level at 1 to 10 uM incubated for 20 hrs followed by LPS/IFNgamma stimulation for last 4 hrs by qRT-PCR analysis; assay type: functional, cell-based
RAW264.7 [20] = experiment: Antiinflammatory activity in LPS/IFNgamma-stimulated mouse RAW264.7 cells assessed as decrease in IL-6 mRNA level at 10 uM incubated for 20 hrs followed by LPS/IFNgamma stimulation for last 4 hrs by qRT-PCR analysis; assay type: functional; set-up: scale not given: the % may be the effect or the level left

| inhibition [1] | inhibition [2] | inhibition [3] | inhibition [4] | inhibition [5] | inhibition [6] | inhibition [9] | inhibition [10] | inhibition [11] | inhibition [12] | inhibition [13] | inhibition [14] | inhibition [15] | SMILES | Activity (RAW264.7 [7]) | Activity (RAW264.7 [8]) | Activity (RAW264.7 [16]) | Activity (RAW264.7 [17]) | Activity (RAW264.7 [18]) | Activity (RAW264.7 [19]) | Activity (RAW264.7 [20]) [%] |
| --- | --- | --- | --- | --- | --- | --- | --- | --- | --- | --- | --- | --- | --- | --- | --- | --- | --- | --- | --- | --- |
| inactive | – | – | – | – | – | – | – | – | – | – | – | – | Nc1ccccc1NC(=O)c1ccc(CNc2ccccc2/N=N/c2ccccc2)cc1 | – | – | – | – | – | – | – |
| – | Active | Active | Active | inactive | Tde | Active | inactive | Active | Tde | Active | inactive | Tde | Nc1ccccc1NC(=O)c1ccc(CNc2cccc(/N=N/c3ccccc3)c2)cc1 | Non-Toxic | inactive | – | – | – | – | – |
| – | Active | Active | Active | – | Tde | Active | < 50% | Active | Tde | Active | Active | Tde | Nc1ccccc1NC(=O)c1ccc(CNc2ccc(/N=N/c3ccccc3)cc2)cc1 | Non-Toxic | Active | Dose-dependent effect | Dose-dependent effect | Active | Active | 90 |
| inactive | Active | Active | Active | – | Tde | Active | < 50% | Active | Tde | Active | Active | Tde | CC(C)(C)OC(=O)Nc1ccccc1NC(=O)c1ccc(CNc2ccccc2/N=N/c2ccccc2)cc1 | Non-Toxic | inactive | – | – | – | – | – |
